From patent US20240327469A1, “FUNCTIONALISED POLYPEPTIDES, NANOPARTICLES AND USES THEREOF” (priority 2021, published 2024)
Structures can show the parent of a compound that is named as a salt.

Tests used:
MCF-7 = assay: In vitro cytotoxicity (alamarBlue); type: cell-based; conditions: Homo sapiens, MCF7; MCF-7, 48 h
Description: (§1) Doxorubicin hydrochloride (DOX) was used as the positive control. For the MCF-7 and MCF-7/ADR, the initial concentration of DOX used was 10 μg/mL and 100 μg/mL, respectively.

MCF-7/ADR = assay: In vitro cytotoxicity (alamarBlue); type: cell-based, human
Description: as §1

MCF-7 cells [1] = assay: Inhibition of cell migration (wound scratch assay); type: cell-based, human; conditions: 24 h at respective IC50
Description: MCF-7 cells (8×10^5/well) were seeded in 6-well plates and incubated overnight for cell adhesion. To create a scratch, a 200 μL pipet tip was used to scrape a straight line through the cell layer. The old media was removed and washed with PBS, and the cells observed under a microscope to acquire images of the original scratch. […] After that, the scratches were observed and imaged using a microscope (Leica, Germany).

MCF-7 cells [2] = assay: Cellular morphology staining; type: cell-based, human; conditions: MCF-7, 24 h; PLL-Gua and Gua-NPs 25 μg/mL, DOX 5.8 μg/mL
Description: (§2) MCF-7 and MCF-7/ADR cells were seeded at a density of 1000 cells/well in 50 μL medium, in a 384-well plate (PerkinElmer View Plate-384 Black). […] Treatment was performed at final concentrations of 25 μg/mL for PLL-Gua and Gua-NPs (on PLL-Gua basis) and 5.8 μg/mL for DOX, with a final volume of 40 μL per well. […] Subsequently, mitochondria were stained with Mito Tracker Deep Red solution in medium, with a final concentration of 100 nM. […] To fix the cells, 20 μL of 16% formaldehyde in PBS were added to each well (final concentration: 4%) and incubated in the dark at room temperature for 20 min. The cells were washed two times with 70 μL of Hanks' balanced salt solution (HBSS). […] The cells were incubated in the dark at room temperature for 30 min. Then, the cells were washed three times with 70 μL HBSS. The HBSS was not aspirated after the final washing step. The plates were sealed and centrifuged for 1 min at 500 rpm. The plate was then imaged using an Opera Phenix high content screening microscope (PerkinElmer) in 4 channels (Ex405/Em456; Ex488/Em522; Ex561/Em599; Ex640/Em706) with 9 sites per well and 63× magnification (binning 2).

MCF-7/ADR cells = assay: Cellular morphology staining; type: cell-based, human; conditions: 24 h, PLL-Gua and Gua-NPs 25 μg/mL, DOX 5.8 μg/mL
Description: as §2

Question: Which IC50 (MCF-7) does the source give for `COc1cccc2c1C(=O)c1c(O)c3c(c(O)c1C2=O)C[C@@](O)(C(=O)CO)C[C@@H]3O[C@H]1C[C@H](N)[C@H](O)[C@H](C)O1` [DOX, Doxorubicin hydrochloride] here?
Answer: 0.13 µg/mL

Question: What about the “difference of IC50 value, MCF-7/ADR vs MCF-7” value (MCF-7/ADR) of the same compound?
Answer: 769 fold

Question: And the MCF-7 cell migration (MCF-7 cells [1])?
Answer: reduced wound gap

Question: What about the cellular morphology (MCF-7 cells [2]) of the same compound?
Answer: drastic decrease in the staining of DNA and RNA

Question: What about the cellular morphology (MCF-7/ADR cells) of the same compound?
Answer: did not induce such changes
